Literature values in patent publication US10201174B2, “Process for reducing contaminating Michael acceptor levels in oxycodone and other compositions” (Controlled Chemicals, Inc., priority 2005, dated 2019).

Conditions: thiol group ionisation, aqueous

Row | SMILES | pKSH / pK of the thiol-containing compound
1 | O=C([O-])CS.[Na+] [sodium thioglycolate] | 10.3
2 | O=C(O)c1cc(S)ccc1[N+](=O)[O-] [5-mercapto-2-nitro-benzoic acid] | 4.8
